Test results from paper PMC10502144, “Anti-methicillin-resistant Staphylococcus aureus activity and safety evaluation of 14-O-[(5-ethoxycarbonyl-4,6-dimethylpyrimidine-2-yl) thioacetyl] mutilin (EDT)” (Scientific Reports, 2023).
Where two headings read alike, the source gives them in different places. Marks after values point to notes of the source that are not given here.

Assays:
[1] = system: Salmonella Typhimurium TA1535
Description: (§1) Before the test, Salmonella Typhimurium (S. Typhimurium) TA97a, TA98, TA100, TA102, TA1535 and Escherichia coli WP2uvrA pKM101 (pKM101) were first checked for their genetic integrity, including biotin dependence, rfa marker (crystal violet), biotin, histidine dependence and presence of the plasmid pKM101 (ampicillin resistance) or pAQ1 (tetracycline resistance). […] The maximum concentration of EDT was also screened using a preliminary experiment.
(§2) DMSO (0.1 mL) was directly incorporated into 1.9 mL melted top agar as the vehicle control. […] Each strain (0.1 mL, 6–7 log10 CFU/mL) was added into 2 mL of top agar in which comprised 0.5 mL S9 (10%), serial concentrations of EDT (2000, 400, 80, 16 and 3.2 μg/plate), DMSO or control chemicals for testing with the S9. For testing without S9, 0.5 mL phosphate buffer saline (PBS, pH 7.4) replaced the S9 mix. Then, the obtained top agar was melted, poured onto the surface of […] and swirled to distribute the top agar to all surfaces of medium, followed by incubation at 37 °C for 48 h. The resultant colonies were counted manually as the number of revertant colonies per plate. The experiments were performed in triplicate and the results were expressed as the average ± SD.

[2] = system: Salmonella Typhimurium TA97a; assay: Ames test, TA97a; conditions: positive control 50 μg/plate, −S9
Description: as §1, §2

[3] = system: Salmonella Typhimurium TA102; assay: Ames test, TA102; conditions: TA102, positive control 50 μg/plate, −S9
Description: as §1, §2

[4] = system: Salmonella Typhimurium TA98; assay: Ames test, TA98; conditions: TA98, positive control 50 μg/plate, −S9
Description: as §1, §2

[5] = system: Salmonella Typhimurium TA100; assay: Ames test, TA100; assay type: cell-based; conditions: TA100, positive control 1μL/plate, −S9
Description: as §1, §2

[6] = system: Escherichia coli WP2uvrA pKM101; assay: Ames test, pKM101
Description: as §1, §2

Compound: Nc1ccc2cc3ccccc3cc2c1 [2-aminoanthracene, reference compound]
- number of revertant colonies per plate ([1]; TA1535, positive control 10 μg/plate, +S9): 740.00 ± 44.00^d

Compound: CN(C)c1ccc(N=NS(=O)(=O)[O-])cc1.[Na+] [diaxone, reference compound]
- number of revertant colonies per plate [2]: 2472.00 ± 94.00^b
- number of revertant colonies per plate [3]: 522.00 ± 45.00^b
- number of revertant colonies per plate [4]: 972.00 ± 37.00^b

Compound: [N-]=[N+]=[N-].[Na+] [sodium azide, reference compound]
- number of revertant colonies per plate ([1]; TA1535, positive control 1.5 μg/plate, −S9): 534.33 ± 38.67^e

Compound: methyl sulfonate [reference compound]
- number of revertant colonies per plate [5]: 1017.33 ± 39.67^c
- number of revertant colonies per plate [6]: 644.00 ± 38.00^c
